The values that follow come from patent publication US11028090B2 (Dong Wha Pharm. Co., Ltd., priority 2017, dated 2021).

SMILES strings stand for the structures. Like-named read-outs stand apart in the source and are kept apart here.

In assay [1] the target is BRD4 (BD1+BD2) bromodomain (Homo sapiens (Human), UniProt O60885). The experiment in a line: BRD4 binding inhibition (AlphaScreen, GST-BRD4 vs tetraacetylated histone H4 peptide). A digest of the protocol:
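AlphaScreen read after 30 min dark incubation at room temperature with glutathione acceptor/streptavidin donor beads (10 μg/ml each). The beads were added to compound plus 100 nM biotin-H4 (K5,8,12,16-acetyl) peptide and 100 nM GST-BRD4 BD1+BD2 in pH 7.4 HEPES/Tween/BSA/DTT buffer.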
For orientation: Bead proximity is the source of the signal in Alpha formats.

In assay [2] the test system is acute myelogenous leukemia cells (MV-4-11 cells). The experiment in a line: Cytotoxicity to acute myelogenous leukemia cells (MV-4-11 cells), CCK-8. The conditions noted are these: Homo sapiens, MV4-11, 72 h.
Where [3] appears, read: GST-BRD4 (BD1+BD2) / biotinylated acetyl-histone H4 (Lys5,8,12,16) peptide, read-out: IC50, BRD4 binding inhibition.
Where [4] appears, read: GST-BRD4 (BD1+BD2) vs biotinylated acetyl-histone H4 peptide, AlphaScreen, read-out: BRD4 IC50.
Setting [5] is: read-out: MV-4-11 Cytotoxicity IC50.
The mark [6] stands for this setting: read-out: IC50, cytotoxicity against acute myelogenous leukemia cells.

What is called IC50 is the point on the concentration scale where inhibition reaches its midpoint. `Cc1nnc2c(NCCCCNC(=O)CC(C)C)nc3cc(N)ccc3n12` [Example 245, N-[4-(7-amino-1-methyl-[1,2,4]triazolo[4,3-a]quinoxaline-4-ylamino)-butyl]-3-methyl-butyramide]: the half-maximal inhibitory concentration (IC50) in assay [1] (setting [3]) is ≤ 0.05 µM; in assay [1] (setting [4]), 0.032 µM; in assay [2] (setting [5]), 0.361 µM.
Consider `CCCNc1ccc2c(c1)nc(NCCCCNC(=O)CC(C)C)c1nnc(C)n12` [Example 253, 3-methyl-N-[4-(1-methyl-7-propylamino-[1,2,4]triazolo[4,3-a]quinoxaline-4-ylamino)-butyl]-butyramide], for which the concentration for half-maximal inhibition (IC50) is ≤ 0.05 µM in assay [1] (setting [3]), 0.05 µM in assay [1] (setting [4]) and 0.235 µM in assay [2] (setting [5]).
For `Cc1nnc2c(NCCCCNC(=O)CC(C)C)nc3cc(NCCCC#N)ccc3n12` [Example 254, N-{4-[7-(3-cyano-propylamino)-1-methyl-[1,2,4]triazolo[4,3-a]quinoxaline-4-ylamino]-butyl}-3-methyl-butyramide], the IC50 in assay [1] (setting [3]) was ≤ 0.01 µM; in assay [1] (setting [4]), 0.007 µM; in assay [2] (setting [6]) it was ≤ 0.2 µM; in assay [2] (setting [5]), 0.101 µM.
Consider `Cc1nnc2c(NCCCCNC(=O)CC(C)C)nc3cc(NS(C)(=O)=O)ccc3n12` [Example 257, N-[4-(7-methanesulfonylamino-1-methyl-[1,2,4]triazolo[4,3-a]quinoxaline-4-ylamino)-butyl]-3-methyl-butyramide], for which the IC50 is ≤ 0.01 µM in assay [1] (setting [3]), 0.008 µM in assay [1] (setting [4]) and 0.327 µM in assay [2] (setting [5]).
The corresponding values for `Cc1nnc2c(NCCCCNC(=O)CC(C)C)nc3cc(NS(=O)(=O)CC(F)(F)F)ccc3n12` [Example 258] are ≤ 0.05 µM, 0.049 µM and 0.345 µM.
The corresponding values for `Cc1nnc2c(NCCCCNC(=O)CC(C)(C)C)nc3ccc(OC(F)(F)F)cc3n12` [Example 266, 3,3-dimethyl-N-[4-(1-methyl-8-trifluoromethoxy-[1,2,4]triazolo[4,3-a]quinoxaline-4-ylamino)-butyl]-butyramide] are ≤ 0.05 µM, 0.043 µM and 0.54 µM.
For the molecule `Cc1nnc2c(NCCCCNC(=O)c3ccccc3)nc3ccc(OC(F)(F)F)cc3n12` [Example 267, N-[4-(1-methyl-8-trifluoromethoxy-[1,2,4]triazolo[4,3-a]quinoxaline-4-ylamino)-butyl]-benzamide], the IC50 in assay [1] (setting [3]) is ≤ 0.05 µM; in assay [1] (setting [4]), 0.039 µM; in assay [2] (setting [5]) it was 0.57 µM.
Consider `Cc1nnc2c(NCCCCNC(=O)c3ccccc3Cl)nc3ccc(OC(F)(F)F)cc3n12` [Example 268, 2-chloro-N-[4-(1-methyl-8-trifluoromethoxy-[1,2,4]triazolo[4,3-a]quinoxaline-4-ylamino)-butyl]-benzamide], for which the results for the IC50 in assay [1] (setting [3]), in assay [1] (setting [4]) and in assay [2] (setting [5]) were ≤ 0.05 µM, 0.035 µM and 0.5 µM, respectively.
The corresponding values for `Cc1nnc2c(NCCCCNC(=O)CC(C)(C)C)nc3cc(OC(F)(F)F)ccc3n12` [Example 272, 3,3-dimethyl-N-[4-(1-methyl-7-trifluoromethoxy-[1,2,4]triazolo[4,3-a]quinoxaline-4-ylamino)-butyl]-butyramide] are ≤ 0.05 µM, 0.025 µM and 0.81 µM.
The corresponding values for `Cc1nnc2c(NCCCCNC(=O)c3ccccc3)nc3cc(OC(F)(F)F)ccc3n12` [Example 273, N-[4-(1-methyl-7-trifluoromethoxy-[1,2,4]triazolo[4,3-a]quinoxaline-4-ylamino)-butyl]-benzamide] are ≤ 0.05 µM, 0.049 µM and 0.51 µM.
The corresponding values for `Cc1nnc2c(NCCCCNC(=O)c3ccccc3Cl)nc3cc(OC(F)(F)F)ccc3n12` [Example 274, 2-chloro-N-[4-(1-methyl-7-trifluoromethoxy-[1,2,4]triazolo[4,3-a]quinoxaline-4-ylamino)-butyl]-benzamide] are ≤ 0.05 µM, 0.027 µM and 0.28 µM.
In the case of `COc1ccc2c(c1)nc(NCCCCNC(=O)OC(C)(C)C)c1nnc(C)n12` [Example 275, [4-(7-methoxy-1-methyl-[1,2,4]triazolo[4,3-a]quinoxaline-4-ylamino)-butyl]-carbamic acid-tert-butylester], the IC50 in assay [1] (setting [3]) was ≤ 0.05 µM; in assay [1] (setting [4]) it was 0.038 µM; in assay [2] (setting [5]), 0.33 µM.
On to `CCC(C)OC(=O)NCCCCNc1nc2cc(OC)ccc2n2c(C)nnc12` (stereo not shown) [Example 280, [4-(7-methoxy-1-methyl-[1,2,4]triazolo[4,3-a]quinoxaline-4-ylamino)-butyl]-carbamic acid-sec-butylester], for which the IC50 in assay [1] (setting [3]) is ≤ 0.05 µM; in assay [1] (setting [4]) it was 0.014 µM; in assay [2] (setting [6]) it was ≤ 0.2 µM; in assay [2] (setting [5]) it was 0.04 µM.
Taken in the same sequence, the figures for `COc1ccc2c(c1)nc(NCCCCNC(=O)C(C)C)c1nnc(C)n12` [Example 281, N-[4-(7-methoxy-1-methyl-[1,2,4]triazolo[4,3-a]quinoxaline-4-ylamino)-butyl]-isobutyramide] were ≤ 0.01 µM, 0.0004 µM, ≤ 0.2 µM and 0.158 µM.
`C/C=C/C(=O)NCCCCNc1nc2cc(OC)ccc2n2c(C)nnc12` [Example 283, butene-2-oic acid-[4-(7-methoxy-1-methyl-[1,2,4]triazolo[4,3-a]quinoxaline-4-ylamino)-butyl]-amide]: the IC50 in assay [1] (setting [4]) is 0.051 µM; in assay [2] (setting [5]), 0.176 µM.
`COc1ccc2c(c1)nc(NCCCCNC(=O)C=C(C)C)c1nnc(C)n12` [Example 284, 3-methyl-butene-2-oic acid-[4-(7-methoxy-1-methyl-[1,2,4]triazolo[4,3-a]quinoxaline-4-ylamino)-butyl]-amide]: the 50% inhibitory concentration (IC50) is ≤ 0.01 µM in assay [1] (setting [3]), 0.009 µM in assay [1] (setting [4]), ≤ 0.2 µM in assay [2] (setting [6]) and 0.173 µM in assay [2] (setting [5]).
Taken in the same sequence, the figures for `COc1ccc2c(c1)nc(NCCCCNC(=O)[C@@H](F)C(C)C)c1nnc(C)n12` [Example 286, 2-(S)-fluoro-N-[4-(7-methoxy-1-methyl-[1,2,4]triazolo[4,3-a]quinoxaline-4-ylamino)-butyl]-3-methyl-butyramide] were ≤ 0.05 µM, 0.03 µM, ≤ 0.2 µM and 0.026 µM.
As to `COc1ccc2c(c1)nc(NCCCCNC(=O)CC(C)(C)C)c1nnc(C)n12` [Example 287, N-[4-(7-methoxy-1-methyl-[1,2,4]triazolo[4,3-a]quinoxaline-4-ylamino)-butyl]-3,3-dimethyl-butyramide], the IC50 in assay [1] (setting [4]) is 0.067 µM; in assay [2] (setting [6]), ≤ 0.2 µM; in assay [2] (setting [5]), 0.125 µM.
On to `COc1ccc2c(c1)nc(NCCCCNC(=O)CCC(C)C)c1nnc(C)n12` [Example 288, 4-methyl-pentanoic acid-[4-(7-methoxy-1-methyl-[1,2,4]triazolo[4,3-a]quinoxaline-4-ylamino)-butyl]-amide], for which the half-inhibitory concentration (IC50) was ≤ 0.05 µM in assay [1] (setting [3]), 0.015 µM in assay [1] (setting [4]), ≤ 0.2 µM in assay [2] (setting [6]) and 0.034 µM in assay [2] (setting [5]).
Consider `CCC(C)CC(=O)NCCCCNc1nc2cc(OC)ccc2n2c(C)nnc12` (stereo not shown) [Example 289, 3-methyl-pentanoic acid-[4-(7-methoxy-1-methyl-[1,2,4]triazolo[4,3-a]quinoxaline-4-ylamino)-butyl]-amide], for which the IC50 in assay [1] (setting [3]) is ≤ 0.05 µM; in assay [1] (setting [4]), 0.012 µM; in assay [2] (setting [6]), ≤ 0.2 µM; in assay [2] (setting [5]) it was 0.026 µM.
As to `CCC(CC)C(=O)NCCCCNc1nc2cc(OC)ccc2n2c(C)nnc12` [Example 290, 2-ethyl-N-[4-(7-methoxy-1-methyl-[1,2,4]triazolo[4,3-a]quinoxaline-4-ylamino)-butyl]-butyramide], the IC50 in assay [1] (setting [3]) is ≤ 0.05 µM; in assay [1] (setting [4]), 0.023 µM; in assay [2] (setting [6]), ≤ 0.2 µM; in assay [2] (setting [5]), 0.15 µM.
On to `CCC(C)C(=O)NCCCCNc1nc2cc(OC)ccc2n2c(C)nnc12` (stereo not shown) [Example 291, N-[4-(7-methoxy-1-methyl-[1,2,4]triazolo[4,3-a]quinoxaline-4-ylamino)-butyl]-2-methyl-butyramide], for which the figures for the IC50 in assay [1] (setting [4]) and in assay [2] (setting [5]) were 0.097 µM and 0.29 µM, respectively.
For the molecule `COc1ccc2c(c1)nc(NCCCCNC(=O)C(F)(F)C(F)(F)C(F)(F)F)c1nnc(C)n12` [Example 292, 2,2,3,3,4,4,4-heptafluoro-N-[4-(7-methoxy-1-methyl-[1,2,4]triazolo[4,3-a]quinoxaline-4-ylamino)-butyl]-butyramide], the concentration for half-maximal inhibition (IC50) in assay [1] (setting [4]) was 0.024 µM; in assay [1] (IC50, BRD4 binding inhibition, GST-BRD4 (BD1+BD2) / biotinylated acetyl-histone H4 (Lys5,8,12,16) peptide) it was ≤ 0.05 µM; in assay [2] (setting [6]), ≤ 0.2 µM; in assay [2] (setting [5]) it was 0.158 µM.
As for `COc1ccc2c(c1)nc(NCCCCNC(=O)C(C)(C)C(F)(F)F)c1nnc(C)n12` [Example 293, 3,3,3-trifluoro-N-[4-(7-methoxy-1-methyl-[1,2,4]triazolo[4,3-a]quinoxaline-4-ylamino)-butyl]-2,2-dimethyl-propaneamide], the half-maximal inhibitory concentration (IC50) in assay [1] (setting [3]) was ≤ 0.05 µM; in assay [1] (setting [4]), 0.04 µM; in assay [2] (setting [5]) it was 0.673 µM.
Taken in the same sequence, the figures for `CCC(F)(F)C(=O)NCCCCNc1nc2cc(OC)ccc2n2c(C)nnc12` [Example 294, 2,2-difluoro-N-[4-(7-methoxy-1-methyl-[1,2,4]triazolo[4,3-a]quinoxaline-4-ylamino)-butyl]-butyramide] were ≤ 0.05 µM, 0.015 µM and 0.203 µM.
